According to patent US20240148780A1, “COMPOSITION AND USE OF AN OPHTHALMIC SOLUTION BASED ON HYALURONIC ACID AND ARABINOGALACTAN” (MD ITALY SRL, priority 2019, published 2024):

Assays:
[1] = system: isolated hepatocytes and microsomal fractions from rat liver; details: compared with an equivalent amount of directly-added free alpha-tocopherol; cited from earlier work
[2] = Rheology, plate viscometer in oscillation mode (G″, G′); type: physicochemical; details: HA 0.15% w/w, AG 0.4% w/w
Protocol: In addition to the evaluation of the effect of arabinogalactan, hyaluronic acid and the association thereof on xanthine oxidase activity and in order to characterize the possible interaction thereof, to justify the inhibitory effect thereof, rheology measurements were carried out with the hypothesis that the two macrostructures, arabinogalactan on the one hand and hyaluronic acid on the other, could modify the rheological trend of the formulation of the present invention.
With reference to FIG. 3, the characterization of the following solutions was carried out using an AM Instruments Plate Viscometer, in Oscillation Mode. The following solutions were measured: • Sample 1: Hyaluronic acid solution at 0.15% w/w • Sample 2: Arabinogalactan solution 0.4% +Hyaluronic acid 0.15% w/v • Sample 3: Arabinogalactan solution 0.4% w/w.
1: Hyaluronic acid 0.15% w/w • Solution no. 2: Arabinogalactan 0.4%+hyaluronic acid 0.15% w/w • Solution no. 3: Arabinogalactan 0.4% w/w • Interpretation of the Results: […]

[3] = Viscosity as a function of shear rate, plate viscometer; type: physicochemical
Protocol: Given the results obtained, the characterization was further extended to determine the viscosity as a function of the shear rate, always using a Plate Viscometer, in particular the following solutions were measured. • Sample 1: Hyaluronic acid • Sample 2: Hyaluronic acid+Arabinogalactan • Sample 3: Eye drops A • Sample 4: Arabinogalactan
The description of the graph can be further exemplified by the following table which reports the viscosity values (mPa·s$) at 10[1/s] at a fixed point corresponding to A.

xanthine oxidase [4] = target: T1, xanthine oxidase (Homo sapiens, UniProt P47989); assay: Superoxide anion production by xanthine oxidase, detected by ferrocytochrome C reduction; type: biochemical; details: xanthine oxidase reaction
T1 sequence (P47989 whole entry, species assumed): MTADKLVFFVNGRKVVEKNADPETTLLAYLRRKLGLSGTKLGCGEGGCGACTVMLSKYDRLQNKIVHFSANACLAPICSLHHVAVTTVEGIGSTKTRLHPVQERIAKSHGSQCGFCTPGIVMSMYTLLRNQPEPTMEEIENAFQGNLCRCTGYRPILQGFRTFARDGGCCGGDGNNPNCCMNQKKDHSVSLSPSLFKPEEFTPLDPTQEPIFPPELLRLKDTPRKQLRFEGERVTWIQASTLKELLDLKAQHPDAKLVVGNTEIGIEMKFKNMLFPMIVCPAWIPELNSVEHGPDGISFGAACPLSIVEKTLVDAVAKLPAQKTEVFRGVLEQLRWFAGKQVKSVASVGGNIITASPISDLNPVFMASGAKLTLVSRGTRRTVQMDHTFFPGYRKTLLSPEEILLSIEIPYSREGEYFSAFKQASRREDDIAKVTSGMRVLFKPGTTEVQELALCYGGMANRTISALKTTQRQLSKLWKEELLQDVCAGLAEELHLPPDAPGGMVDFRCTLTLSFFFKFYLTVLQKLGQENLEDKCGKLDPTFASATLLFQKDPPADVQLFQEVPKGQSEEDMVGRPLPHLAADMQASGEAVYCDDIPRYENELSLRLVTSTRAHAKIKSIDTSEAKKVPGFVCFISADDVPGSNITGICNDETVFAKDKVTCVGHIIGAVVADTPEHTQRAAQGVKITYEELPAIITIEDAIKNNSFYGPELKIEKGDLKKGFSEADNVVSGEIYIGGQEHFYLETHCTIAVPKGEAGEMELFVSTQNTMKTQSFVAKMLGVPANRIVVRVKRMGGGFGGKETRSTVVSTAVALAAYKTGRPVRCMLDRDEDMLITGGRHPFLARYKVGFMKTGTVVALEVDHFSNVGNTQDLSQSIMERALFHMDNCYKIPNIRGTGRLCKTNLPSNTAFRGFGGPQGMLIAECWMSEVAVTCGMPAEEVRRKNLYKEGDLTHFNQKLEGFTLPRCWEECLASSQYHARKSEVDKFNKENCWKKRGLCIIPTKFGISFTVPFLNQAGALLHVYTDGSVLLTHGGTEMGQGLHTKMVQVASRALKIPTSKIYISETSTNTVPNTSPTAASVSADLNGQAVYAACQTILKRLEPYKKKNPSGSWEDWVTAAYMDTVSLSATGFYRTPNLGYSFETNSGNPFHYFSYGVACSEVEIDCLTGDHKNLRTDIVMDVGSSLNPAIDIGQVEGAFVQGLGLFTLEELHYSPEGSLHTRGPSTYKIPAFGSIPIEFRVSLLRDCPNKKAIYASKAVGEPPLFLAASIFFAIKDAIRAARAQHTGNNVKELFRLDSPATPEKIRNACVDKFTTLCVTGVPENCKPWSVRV
From the text: Any inhibition is particularly important because the superoxide anion production is at the origin, at least in part, of the inflammatory phenomena of the ocular surface. The superoxide anion produced by xanthine oxidase in the oxidation reaction of xanthine was detected by the reduction of […] to […] by the same superoxide anion (O2^−·) (Fridovich). The reaction is reported here for clarity:
Fe^3+Cit.C+Superoxide Anion-----→Fe^2+Cit.C
The effect of arabinogalactan, hyaluronic acid, and the association thereof on superoxide anion production over time (0, 1, 5, 10, 15, 30 min) was investigated. The production of superoxide anion was determined by the reduction of ferrocytochrome C (3+) to ferrocytochrome C (2+), monitoring absorption at 551 nm using a DR6000 UV spectrophotometer (Hach, Lange). The tests for the determination of superoxide anion production were carried out still using the xanthine oxidase reaction used previously.
Produced by the superoxide anion, the ferrocytochrome C was calculated considering a molar absorption equal to 2.1×10^4 M^−1·cm^−1 (Ref. 16-17). The superoxide inhibition evaluation reported above was performed for arabinogalactan, hyaluronic acid, and the association thereof. Furthermore, the eye drops formulation of the present invention was also evaluated, also comprising panthenol, vitamin E-TGPS and trehalose.

xanthine oxidase [5] = target: T1, xanthine oxidase; assay: Xanthine oxidase (XOD) reaction inhibition: formation of uric acid; type: biochemical
Protocol: The effect of arabinogalactan, hyaluronic acid and the association thereof was investigated by monitoring the formation of uric acid over time (0, 1, 5, 10, 15, 30 min). Uric acid concentration was determined at 291 nm using a DR6000 UV spectrophotometer (Hach, Lange). The absorbance value is related to the concentration by means of the Lambert-Beer law:
where A is the absorbance of uric acid at 291 nm, ε is the molar absorption coefficient, b is the optical path (thickness of the cuvette in which the solution is contained) and C is the uric acid concentration.
The blank/control consists of: 50 μM xanthine, 10 mg L^−1 of xanthine oxidase (XO) (0.00016 μUI of enzyme) in borate buffer solution (see table 3) 7.2≤pH≤7.8). The effect of the components of the eye drops was investigated by adding the individual components to the blank solution: respectively • (i) 0.4% (w/w) of arabinogalactan (AG) • (ii) 0.15% (w/w) of hyaluronic acid (HA) • (iii) association of 0.4% (w/w) of AG+0.15% (w/w) of HA (mix AG+HA). • (iii) Eye drops corresponding to the formulation of Tab.3.
All the tests were conducted at least in triplicate.
The uric acid formation reductions were calculated as: […]
where C30-(i) is the final concentration (30 min) of uric acid in the i-th test and C30-control is the uric acid concentration at 30 min in the blank (control).
Furthermore, the inhibition evaluation reported above was also carried out in borate buffer for arabinogalactan, for hyaluronic acid and for the association thereof, and finally for the eye drops formulation of the present invention, also comprising panthenol, vitamin E-TGPS and trehalose.

| Compound | Antioxidant protection [1] | Trend of G″ (Loss Modulus Viscosity) [2] | Viscosity trend as a function of shear rate ([3]; FIG. 4) | Viscosity ([3]; at 10 [1/s], fixed point) [mPa·s] | Fe+2 Cit.C μM produced per minute (xanthine oxidase [4]; per minute) [µM] | Fe+2 Cit.C μM produced in 30 minutes (xanthine oxidase [4]; 551 nm, 30 min) [µM] | Inhibition % of Fe+2 Cit.C production (superoxide anion) (xanthine oxidase [4]; 551 nm, 30 min vs control) [%] | Uric acid μM produced in 30 minutes (xanthine oxidase [5]; 50 μM xanthine, 10 mg L−1 xanthine oxidase, borate buffer, AG 0.4% w/w, HA 0.15% w/w, 30 min) [µM] | Inhibition % of uric acid production (xanthine oxidase [5]; 50 μM xanthine, 10 mg L−1 xanthine oxidase, borate buffer, AG 0.4% w/w, HA 0.15% w/w, 30 min vs blank) [%] | Uric acid μM produced per minute (xanthine oxidase [5]; per minute, same reaction, linear kinetics assumed) [µM] |
| --- | --- | --- | --- | --- | --- | --- | --- | --- | --- | --- |
| Cc1c(C)c2c(c(C)c1OC(=O)CCC(=O)O)CC[C@@](C)(CCC[C@H](C)CCC[C@H](C)CCCC(C)C)O2 [TS, alpha-tocopherol succinate, reference compound] | more effective antioxidant protection than an equivalent amount of directly-added free alpha-tocopherol | – | – | – | – | – | – | – | – | – |
| Hyaluronic acid | – | always with a value higher than the other measured solutions | linear trend (Newtonian) higher viscosity | 1.50 | 0.42 | 12.6 | 17.2 | 15.3 | 0 | 0.51 |
| alpha-tocopherol polyethylene glycol 1000 succinate [TPGS] | more effective antioxidant protection than an equivalent amount of directly-added free alpha-tocopherol | – | – | – | – | – | – | – | – | – |
